Test results from patent US20260250251A1, “HETEROCYCLIC COMPOUNDS AS PI3Ka INHIBITORS” (Pikavation Therapeutics, Inc., priority 2022, published 2026).

Key:
[1] = tested on: SKBR3 (PIK3CA WT) cells, pSer473 AKT; test: pS473 AKT assay in SKBR3 cells; format: cell-based; conditions: Homo sapiens, SK-BR-3, treated 2 h, read-out: SKBR3_IC50
Procedure, shortened: (§1)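 Cells exposed 2 h to a range of PI3Kα inhibitor concentrations, then paraformaldehyde-fixed and probed for pSer473 AKT with rabbit primary overnight at 4 °C and HRP anti-rabbit secondary. Chemiluminescent cell-based ELISA read-out; IC50 from concentration-response fitting.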

[2] = tested on: T47D (PIK3CA H1047R) cells, pSer473 AKT; test: pS473 AKT assay in T47D cells; format: cell-based; conditions: Homo sapiens, treated 2 h, read-out: T47D_IC50
Procedure, shortened: as §1

Structure (SMILES) | IC50 [1] | IC50 [2]
Nc1nn2c(=O)c3c(c4cc(NC(=O)c5cc(F)cc(C(F)(F)F)c5)c(Oc5cc(F)ccc5Cl)c1c42)CCC3 [Example 74, N-(4-Amino-3-(2-chloro-5-fluorophenoxy)-7-oxo-7,8,9,10-tetrahydrocyclopenta[c]pyrazolo[4,5,1-ij]quinolin-2-yl)-3-fluoro-5-(trifluoromethyl)benzamide] | < 1000 nM | < 1000 nM
Cn1nc(N)c2c(Oc3cc(F)ccc3Cl)c(NC(=O)c3cc(F)cc(C(F)(F)F)c3)cc(/C=C/c3ccccn3)c21 [Example 76, (E)-N-(3-Amino-4-(2-chloro-5-fluorophenoxy)-1-methyl-7-(2-(pyridin-2-yl)vinyl)-1H-indazol-5-yl)-3-fluoro-5-(trifluoromethyl)benzamide] | 5000 to 10000 nM | < 1000 nM
Cn1nc(N)c2c(Oc3cc(F)ccc3Cl)c(NC(=O)c3cc(F)cc(C(F)(F)F)c3)cc(C#CC3CCCCN3)c21 (stereo not drawn) [Example 78, N-(3-Amino-4-(2-chloro-5-fluorophenoxy)-1-methyl-7-(piperidin-2-ylethynyl)-1H-indazol-5-yl)-3-fluoro-5-(trifluoromethyl)benzamide] | 1000 to 5000 nM | < 1000 nM
CC(=O)N1CCCCC1C#Cc1cc(NC(=O)c2cc(F)cc(C(F)(F)F)c2)c(Oc2cc(F)ccc2Cl)c2c(N)nn(C)c12 (stereo not drawn) [Example 79, N-(7-((1-Acetylpiperidin-2-yl)ethynyl)-3-amino-4-(2-chloro-5-fluorophenoxy)-1-methyl-1H-indazol-5-yl)-3-fluoro-5-(trifluoromethyl)benzamide] | 1000 to 5000 nM | < 1000 nM
CC(=O)n1nc(N)c2c(Oc3cc(F)ccc3Cl)c(NC(=O)c3cc(F)cc(C(F)(F)F)c3)cc(Br)c21 [Example 82, N-(1-Acetyl-3-amino-7-bromo-4-(2-chloro-5-fluorophenoxy)-1H-indazol-5-yl)-3-fluoro-5-(trifluoromethyl)benzamide] | 1000 to 5000 nM | < 1000 nM

Other lines, results leading:

IC50 [1] | IC50 [2] | Structure (SMILES)
< 1000 nM | < 1000 nM | Nc1nn2c(=O)c3c(c4cc(NC(=O)c5cc(F)cc(C(F)(F)F)c5)c(Oc5cc(F)ccc5Cl)c1c42)CCCC3 [Example 75, N-(4-Amino-3-(2-chloro-5-fluorophenoxy)-7-oxo-8,9,10,11-tetrahydro-7H-pyrazolo[4,5,1-de]phenanthridin-2-yl)-3-fluoro-5-(trifluoromethyl)benzamide]
1000 to 5000 nM | < 1000 nM | Cn1nc(N)c2c(Oc3cc(F)ccc3Cl)c(NC(=O)c3cc(F)cc(C(F)(F)F)c3)cc(CCc3ccccn3)c21 [Example 77, N-(3-Amino-4-(2-chloro-5-fluorophenoxy)-1-methyl-7-(2-(pyridin-2-yl)ethyl)-1H-indazol-5-yl)-3-fluoro-5-(trifluoromethyl)benzamide]
1000 to 5000 nM | < 1000 nM | CNC(=O)N1CCCCC1C#Cc1cc(NC(=O)c2cc(F)cc(C(F)(F)F)c2)c(Oc2cc(F)ccc2Cl)c2c(N)nn(C)c12 (stereo not drawn) [Example 80, 2-((3-Amino-4-(2-chloro-5-fluorophenoxy)-5-(3-fluoro-5-(trifluoromethyl)benzamido)-1-methyl-1H-indazol-7-yl)ethynyl)-N-methylpiperidine-1-carboxamide]
1000 to 5000 nM | < 1000 nM | CS(=O)(=O)n1nc(N)c2c(Oc3cc(F)ccc3Cl)c(NC(=O)c3cc(F)cc(C(F)(F)F)c3)cc(Br)c21 [Example 81, N-(3-Amino-7-bromo-4-(2-chloro-5-fluorophenoxy)-1-(methylsulfonyl)-1H-indazol-5-yl)-3-fluoro-5-(trifluoromethyl)benzamide]
